Results on 6 compounds are retold here after ChEMBL document CHEMBL3046616, “Design, synthesis, and biological activities of milbemycin analogues” (2011).

The mortality is the percentage killed. The LC50 is the concentration lethal to half of the exposed cells or organisms.

Structures are written as SMILES. In brackets after ≈: the same amount, converted by molar mass.

Assay type in all cases: functional
The test system of assay [1] is Mythimna separata. Description: Insecticidal activity against Mythimna separata (Oriental armyworm) fourth-instar larvae reared compound pre-treated corn leaves assessed as insect mortality at 2.5 mg/L measured 2 days post compound dose.
The test system of assay [2] is Tetranychus cinnabarinus. As to the kind of experiment: Insecticidal activity against Tetranychus cinnabarinus (carmine spider mite) […] assessed as larvicidal activity at 0.006 mg/L after 48 hr.
In assay [3] the test system is Aphis fabae. As to the kind of experiment: Insecticidal activity against Aphis fabae (black bean aphid) infested soybean tender shoots at 0.625 mg/L measured 48 hr post compound dose by modified FAO dip method.
For assay [4], the system named is Aphis fabae. As to the kind of experiment: Insecticidal activity against Aphis fabae (black bean aphid) infested soybean tender shoots at 2.5 mg/L measured 48 hr post compound dose by modified FAO dip method.
The subject of assay [5] is Mythimna separata. As to the kind of experiment: Insecticidal activity against Mythimna separata (Oriental armyworm) fourth-instar larvae reared compound pre-treated corn leaves assessed as insect mortality at 10 mg/L measured 2 days post compound dose.
For assay [6], the system named is Aphis fabae. Description: Insecticidal activity against Aphis fabae (black bean aphid) infested soybean tender shoots at 10 mg/L measured 48 hr post compound dose by modified FAO dip method.
For assay [7], the system named is Mythimna separata. Description: Insecticidal activity against Mythimna separata (Oriental armyworm) fourth-instar larvae reared compound pre-treated corn leaves assessed as insect mortality at 0.625 mg/L measured 2 days post compound dose.
For assay [8], the system named is Mythimna separata. As to the kind of experiment: Insecticidal activity against Mythimna separata (Oriental armyworm) fourth-instar larvae reared compound pre-treated corn leaves assessed as insect mortality at 1 mg/L measured 2 days post compound dose.
The test system of assay [9] is Mythimna separata. Description: Insecticidal activity against fourth-instar larvae of Mythimna separata (Oriental armyworm) reared on compound pre-treated corn leaves assessed as insect mortality at 0.0625 mg/L measured 2 days post compound dose.
The test system of assay [10] is Mythimna separata. Description: Insecticidal activity against Mythimna separata (Oriental armyworm) fourth-instar larvae reared compound pre-treated corn leaves assessed as insect mortality measured 2 days post compound dose.
The subject of assay [11] is Mythimna separata. As to the kind of experiment: Insecticidal activity against Mythimna separata (Oriental armyworm) fourth-instar larvae reared compound pre-treated corn leaves assessed as insect mortality at 0.5 mg/L measured 2 days post compound dose.
For assay [12], the system named is Aphis fabae. Description: Insecticidal activity against Aphis fabae (black bean aphid) infested soybean tender shoots at 0.25 mg/L measured 48 hr post compound dose by modified FAO dip method.
Assay [13] relates to Aphis fabae. As to the kind of experiment: Insecticidal activity against Aphis fabae (black bean aphid) infested soybean tender shoots at 1 mg/L measured 48 hr post compound dose by modified FAO dip method.
Assay [14] relates to Mythimna separata. Description: Insecticidal activity against fourth-instar larvae of Mythimna separata (Oriental armyworm) reared on compound pre-treated corn leaves assessed as insect mortality at 0.125 mg/L measured 2 days post compound dose.
Assay [15] has as its system Aphis fabae. As to the kind of experiment: Insecticidal activity against Aphis fabae (black bean aphid) infested soybean tender shoots at 0.125 mg/L measured 48 hr post compound dose by modified FAO dip method.
In assay [16] the test system is Aphis fabae. As to the kind of experiment: Insecticidal activity against Aphis fabae (black bean aphid) infested soybean tender shoots at 0.5 mg/L measured 48 hr post compound dose by modified FAO dip method.
Assay [17] deals with Aphis fabae. Description: Insecticidal activity against Aphis fabae (black bean aphid infested soybean tender shoots measured 48 hr post compound dose by modified FAO dip method. Conditions: Aphis fabae, 48 h.
Assay [18] concerns Aphis fabae. Description: Insecticidal activity against Aphis fabae (black bean aphid) infested soybean tender shoots at 0.0625 mg/L measured 48 hr post compound dose by modified FAO dip method.
Assay [19] relates to Mythimna separata. As to the kind of experiment: Insecticidal activity against Mythimna separata (Oriental armyworm) fourth-instar larvae reared compound pre-treated corn leaves assessed as insect mortality at 0.25 mg/L measured 2 days post compound dose.
The test system of assay [20] is Mythimna separata. Description: Insecticidal activity against fourth-instar larvae of Mythimna separata (Oriental armyworm) reared on compound pre-treated corn leaves assessed as insect mortality at 0.03125 mg/L measured 2 days post compound dose.
Assay [21] relates to Mythimna separata. Description: Insecticidal activity against Mythimna separata (Oriental armyworm) fourth-instar larvae reared compound pre-treated corn leaves assessed as insect mortality at 200 mg/L measured 2 days post compound dose.

In the case of `CCC(C)[C@H]1O[C@]2(CC[C@@H]1C)C[C@@H]1C[C@@H](C/C=C(\C)[C@@H](O[C@H]3C[C@H](OC)[C@@H](OC(=O)c4ccc(F)cc4)[C@H](C)O3)[C@@H](C)/C=C/C=C3\CO[C@@H]4[C@H](O)C(C)=C[C@@H](C(=O)O1)[C@]34O)O2` (stereo not given in full), the mortality at 2.5 µg/mL was 16.7% in assay [1] and 100% in [4]. The mortality at 0.006 µg/mL in assay [2] is 9.9%. For the same compound, the mortality at 0.625 µg/mL in assay [3] is 97.1%; in assay [7], 0%. Moreover, the values for the mortality at 10 µg/mL in assay [5] and in [6] were 55.8% and 100%, respectively.

In the case of `CCC(C)[C@H]1O[C@]2(CC[C@@H]1C)C[C@@H]1C[C@@H](C/C=C(\C)[C@@H](O[C@H]3C[C@H](OC)[C@@H](OC(=O)C(C)(C)CC)[C@H](C)O3)[C@@H](C)/C=C/C=C3\CO[C@@H]4[C@H](O)C(C)=C[C@@H](C(=O)O1)[C@]34O)O2` (stereo not given in full), the mortality at 2.5 µg/mL in [1] was 83.6%; in assay [4], 100%. Also, the mortality at 0.006 µg/mL in assay [2] is 39.6%. For the same compound, the mortality at 0.625 µg/mL worked out at 89.1% in assay [3] and 0% in assay [7].

As to `CCC(C)[C@H]1O[C@]2(CC[C@@H]1C)C[C@@H]1C[C@@H](C/C=C(\C)[C@@H](O[C@H]3C[C@H](OC)[C@@H](OC(=O)/C(=N\OC)c4ccccc4)[C@H](C)O3)[C@@H](C)/C=C/C=C3\CO[C@@H]4[C@H](O)C(C)=C[C@@H](C(=O)O1)[C@]34O)O2` (stereo not given in full), the mortality at 1 µg/mL in assay [8] and in [13] was 100% in each case. In addition, the mortality at 0.006 µg/mL in assay [2] worked out at 38.7%. In addition, the mortality at 0.0625 µg/mL in assay [9] and in [18] was 0% in each case. Besides, the LC50 in assay [10] was 0.35 µg/mL (≈ 0.392 µM); in [17], 0.12 µg/mL (≈ 0.135 µM). Also, the mortality at 0.5 µg/mL is 80% in [11] and 70% in [16]. Also, the mortality at 0.25 µg/mL came out at 34.2% in [12] and 30.2% in assay [19]. The figures for the mortality at 0.125 µg/mL in assay [14] and in assay [15] were 6.3% and 3.3%, respectively. For the same compound, in assay [20], the mortality at 0.03125 µg/mL is 0%.

For `CCC(C)[C@H]1O[C@]2(CC[C@@H]1C)C[C@@H]1C[C@@H](C/C=C(\C)[C@@H](O[C@H]3C[C@H](OC)[C@@H](OC(=O)CC(C)(C)C)[C@H](C)O3)[C@@H](C)/C=C/C=C3\CO[C@@H]4[C@H](O)C(C)=C[C@@H](C(=O)O1)[C@]34O)O2` (stereo not given in full), the mortality at 2.5 µg/mL was determined as 51.2% in [1] and 30.2% in assay [4]. In addition, the mortality at 0.006 µg/mL in assay [2] came out at 34.2%. The mortality at 0.625 µg/mL in assay [3] and in assay [7] was 0% each time. Also, the mortality at 10 µg/mL in assay [5] was 88.6%; in assay [6], 80.2%.

Regarding `CCC(C)[C@H]1O[C@]2(CC[C@@H]1C)C[C@@H]1C[C@@H](C/C=C(\C)[C@@H](OC(=O)c3cc(F)c(Cl)nc3Cl)[C@@H](C)/C=C/C=C3\CO[C@@H]4[C@H](O)C(C)=C[C@@H](C(=O)O1)[C@]34O)O2` (stereo not given in full), the mortality at 0.006 µg/mL in assay [2] is 7.7%. Moreover, the mortality at 200 µg/mL in [21] came out at 50.9%. In addition, in [3], the mortality at 0.625 µg/mL was 8.3%. For the same compound, the mortality at 2.5 µg/mL in assay [4] worked out at 38.2%. The compound further displayed a mortality at 10 µg/mL in assay [6] of 66.9%.

Turning to `CCC(C)[C@H]1O[C@]2(CC[C@@H]1C)C[C@@H]1C[C@@H](C/C=C(\C)[C@@H](O[C@H]3C[C@H](OC)[C@@H](OC(=O)c4ccccc4)[C@H](C)O3)[C@@H](C)/C=C/C=C3\CO[C@@H]4[C@H](O)C(C)=C[C@@H](C(=O)O1)[C@]34O)O2` (stereo not given in full), the mortality at 2.5 µg/mL in assay [1] and in [4] was 100% each time. Moreover, the mortality at 0.006 µg/mL in assay [2] came out at 24.8%. The values for the mortality at 0.625 µg/mL in assay [3] and in [7] were 86.3% and 38.8%, respectively. The mortality at 10 µg/mL in assay [5] and in assay [6] was 100% each time.
